The values that follow come from PubChem BioAssay AID256 (DTP/NCI, 2004).

Inconclusive results and toxic doses are left out.

The test system of the test is CD2F1 mice, L1210 leukemia ip, survival T/C. The test can be described thus: NCI In Vivo Anticancer Drug Screen. Data for tumor model L1210 Leukemia (intraperitoneal) in CD2F1 (CDF1) mice. The conditions noted are these: higher = longer survival. The essentials:
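Mice carrying a transplanted tumor received test compound or vehicle alone. The value is the measurement in the treated group divided by that in the vehicle-treated control group.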

Setting [1] is: endpoint: mean survival time, dose: 25.0 mg/kg/injection, schedule: Q04DX003 (ip), vehicle: saline.
The mark [2] stands for this setting: endpoint: mean survival time, dose: 50.0 mg/kg/injection, schedule: Q04DX003 (ip), vehicle: saline.
Where [3] appears, read: endpoint: mean survival time, dose: 100.0 mg/kg/injection, schedule: Q04DX003 (ip), vehicle: saline.
Setting [4] is: endpoint: mean survival time, dose: 100.0 mg/kg/injection, schedule: Q04DX002 (ip), vehicle: saline with Tween-80.
Where [5] appears, read: endpoint: mean survival time, dose: 200.0 mg/kg/injection, schedule: Q04DX002 (ip), vehicle: saline with Tween-80.
[6] abbreviates: endpoint: mean survival time, dose: 100.0 mg/kg/injection, schedule: Q01DX001 (ip), vehicle: saline.
Where [7] appears, read: endpoint: mean survival time, dose: 200.0 mg/kg/injection, schedule: Q01DX001 (ip), vehicle: saline.
The mark [8] stands for this setting: endpoint: mean survival time, dose: 400.0 mg/kg/injection, schedule: Q01DX001 (ip), vehicle: saline.
The mark [9] stands for this setting: endpoint: mean survival time, dose: 100.0 mg/kg/injection, schedule: Q04DX003 (ip), vehicle: saline with Tween-80.
Setting [10] is: endpoint: mean survival time, dose: 200.0 mg/kg/injection, schedule: Q04DX003 (ip), vehicle: saline with Tween-80.
Setting [11] is: endpoint: mean survival time, dose: 400.0 mg/kg/injection, schedule: Q04DX003 (ip), vehicle: saline with Tween-80.
Where [12] appears, read: endpoint: mean survival time, dose: 100.0 mg/kg/injection, schedule: Q01DX009 (ip), vehicle: saline with Tween-80.
[13] abbreviates: endpoint: mean survival time, dose: 200.0 mg/kg/injection, schedule: Q01DX009 (ip), vehicle: saline with Tween-80.
[14] abbreviates: endpoint: mean survival time, dose: 400.0 mg/kg/injection, schedule: Q01DX009 (ip), vehicle: saline with Tween-80.
Where [15] appears, read: endpoint: mean survival time, dose: 200.0 mg/kg/injection, schedule: Q04DX003 (ip), vehicle: saline.
[16] abbreviates: endpoint: mean survival time, dose: 400.0 mg/kg/injection, schedule: Q04DX003 (ip), vehicle: saline.
Setting [17] is: endpoint: mean survival time, dose: 50.0 mg/kg/injection, schedule: Q01DX009 (ip), vehicle: saline with Tween-80.

Turning to `CCOC(=O)Nc1cc2c(c(N)n1)N=C(c1ccc3ccccc3c1)CN2`, the T/C by setting is: (endpoint: median survival time, dose: 0.93 mg/kg/injection, schedule: Q01DX009 (ip), vehicle: saline with Tween-80) 122 % of control; (endpoint: median survival time, dose: 1.0 mg/kg/injection, schedule: Q01DX009 (ip), vehicle: saline with Tween-80) 112 % of control; (endpoint: median survival time, dose: 1.87 mg/kg/injection, schedule: Q01DX009 (ip), vehicle: saline with Tween-80) 113 % of control; (endpoint: median survival time, dose: 3.75 mg/kg/injection, schedule: Q01DX009 (ip), vehicle: saline with Tween-80) 121 % of control; (endpoint: median survival time, dose: 15.0 mg/kg/injection, schedule: Q01DX009 (ip), vehicle: saline with Tween-80) 113 % of control; (endpoint: median survival time, dose: 16.0 mg/kg/injection, schedule: Q01DX009 (ip), vehicle: saline with Tween-80) 114 % of control.

`C[N+](C)(C)C12CCCC1S(=O)(=O)C2` (stereo not drawn): the T/C reads like this: under setting [1], 106 % of control; under setting [2], 98 % of control; under setting [3], 96 % of control.

As for `COc1ccc2nc3cc(Cl)ccc3c(Nc3ccc(NS(C)(=O)=O)cc3)c2n1`, the T/C by setting is: (endpoint: mean survival time, dose: 12.5 mg/kg/injection, schedule: Q01DX009 (ip), vehicle: other) 96 % of control; (endpoint: mean survival time, dose: 25.0 mg/kg/injection, schedule: Q01DX009 (ip), vehicle: other) 104 % of control; (endpoint: mean survival time, dose: 50.0 mg/kg/injection, schedule: Q01DX009 (ip), vehicle: other) 96 % of control; (endpoint: mean survival time, dose: 100.0 mg/kg/injection, schedule: Q01DX009 (ip), vehicle: other) 94 % of control.

Regarding `Cn1c(=O)ccc2ccccc21`, the T/C is 101 % of control under setting [4] and 87 % of control under setting [5].

Take `NC(=O)NC(=O)C1CCCCC1C(=O)O` (stereo not drawn): the T/C under setting [6] is 103 % of control, the T/C under setting [7] is 101 % of control and the T/C under setting [8] was 109 % of control.

Regarding `CC(Br)C(=O)OCc1ccccc1` (stereo not drawn), the T/C under setting [9] was 95 % of control, the T/C under setting [10] was 95 % of control and the T/C under setting [11] was 95 % of control.

Consider `Cc1ccc(S(=O)(=O)N(C)Cc2ccccc2)cc1`, for which the T/C under setting [12] is 96 % of control, the T/C under setting [13] is 106 % of control and the T/C under setting [14] was 98 % of control.

Take `CC(C)OC(=O)COc1ccc(F)cc1F`: the T/C under setting [4] was 92 % of control; the T/C under setting [5] is 95 % of control; the T/C (endpoint: mean survival time, dose: 400.0 mg/kg/injection, schedule: Q04DX002 (ip), vehicle: saline with Tween-80) was 89 % of control.

Regarding `C=C[Si](c1ccccc1)(c1ccccc1)c1ccccc1`, the T/C was 95 % of control (endpoint: mean survival time, dose: 75.0 mg/kg/injection, schedule: Q04DX003 (ip), vehicle: saline); 97 % of control (endpoint: mean survival time, dose: 150.0 mg/kg/injection, schedule: Q04DX003 (ip), vehicle: saline); 97 % of control (endpoint: mean survival time, dose: 300.0 mg/kg/injection, schedule: Q04DX003 (ip), vehicle: saline).

As to `NC(CS(=O)(=O)O)c1ccccc1` (stereo not drawn), the T/C runs as follows: under setting [6], 110 % of control; under setting [3], 96 % of control; under setting [7], 110 % of control; under setting [15], 98 % of control; under setting [8], 110 % of control; under setting [16], 97 % of control.

Consider `Cc1c[nH]c(=S)[nH]c1=O.[Pd]`, for which the T/C (endpoint: mean survival time, dose: 3.12 mg/kg/injection, schedule: Q04DX003 (ip), vehicle: saline) was 94 % of control; the T/C (endpoint: mean survival time, dose: 6.25 mg/kg/injection, schedule: Q04DX003 (ip), vehicle: saline) was 102 % of control; the T/C (endpoint: mean survival time, dose: 12.5 mg/kg/injection, schedule: Q04DX003 (ip), vehicle: saline) was 97 % of control; the T/C under setting [1] was 102 % of control; the T/C under setting [2] is 100 % of control; the T/C under setting [3] was 100 % of control. For the same compound, the T/C under setting [15] was 96 % of control.

Consider `CC(C)(C)OC(=O)NN=C1CCC(C(C)(C)C)CC1` (stereo not drawn), for which the T/C reads like this: (endpoint: mean survival time, dose: 100.0 mg/kg/injection, schedule: Q01DX009 (ip), vehicle: saline) 93 % of control; (endpoint: mean survival time, dose: 200.0 mg/kg/injection, schedule: Q01DX009 (ip), vehicle: saline) 91 % of control; (endpoint: mean survival time, dose: 400.0 mg/kg/injection, schedule: Q01DX009 (ip), vehicle: saline) 98 % of control.

Take `CCN(CC)S(=O)(=O)c1ccc(-c2cc(Cl)c3cc(S(=O)(=O)F)ccc3n2)cc1`: the T/C reads like this: under setting [12], 107 % of control; under setting [13], 87 % of control; under setting [14], 91 % of control.

Turning to `O=C1C=CC(=O)c2c(O)cccc21`, the T/C runs as follows: (endpoint: mean survival time, dose: 3.13 mg/kg/injection, schedule: Q01DX009 (ip), vehicle: saline with Tween-80) 94 % of control; (endpoint: mean survival time, dose: 6.25 mg/kg/injection, schedule: Q01DX009 (ip), vehicle: saline with Tween-80) 92 % of control; (endpoint: mean survival time, dose: 12.5 mg/kg/injection, schedule: Q04DX003 (ip), vehicle: saline with Tween-80) 88 % of control.

For the compound `Cc1c(OCC(=O)O)cc(Cl)c(Cl)c1Cl`, the T/C is, setting by setting: (endpoint: mean survival time, dose: 50.0 mg/kg/injection, schedule: Q04DX002 (ip), vehicle: saline with Tween-80) 105 % of control; under setting [4], 102 % of control; under setting [5], 121 % of control.

With `O=C(Nc1ccc(F)cc1)Nc1ccc(F)cc1`, the T/C under setting [4] is 94 % of control and the T/C under setting [5] is 87 % of control.

For `C=CCOCC(COCC=C)OC1CCS(=O)(=O)C1` (stereo not drawn), the T/C runs as follows: under setting [17], 101 % of control; under setting [12], 97 % of control; under setting [13], 93 % of control.

As for `C=CN1C(=O)NC2(CCCCC2)C1=O`, the T/C runs as follows: (endpoint: mean survival time, dose: 25.0 mg/kg/injection, schedule: Q01DX009 (ip), vehicle: saline with Tween-80) 96 % of control; (endpoint: mean survival time, dose: 25.0 mg/kg/injection, schedule: Q04DX003 (ip), vehicle: saline with Tween-80) 92 % of control; under setting [17], 96 % of control; (endpoint: mean survival time, dose: 50.0 mg/kg/injection, schedule: Q04DX003 (ip), vehicle: saline with Tween-80) 97 % of control; under setting [9], 95 % of control.

Consider `O=c1[nH]cc(F)c(=O)n1-c1ccco1`, for which the T/C was 111 % of control under setting [9] and 166 % of control under setting [10].

As to `Cc1cccc(-n2cc(C#N)c3c(C)cc(C)nc32)c1`, the T/C is 106 % of control under setting [3], 101 % of control under setting [15] and 97 % of control under setting [16].

With `CC(C)(O)CCC1CC1CCC(C)(C)O` (stereo not drawn), the T/C was 97 % of control under setting [9], 89 % of control under setting [10] and 97 % of control under setting [11].
